This note sets out measurements from US9833497B2, “Human originated EGF domain proteins and use of the same” (CHENGDU SOURCEBIO LIMITED-LIABILITY COMPANY, priority 2013, dated 2017).

What all share (type): cell-based
One assay deals with E. coli DH5α. The assay is described as follows: Antibacterial activity: MIC and growth curve against E. coli DH5α in 96-well plate. Particulars: minimal inhibitory concentration against E. coli DH5α; 96-well plate, 5×10^5 CFU/mL, 37° C., judged after 8 h. In short, it runs like this:
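MIC taken as lowest protein level with no bacterial growth, tracked by A600 every 30 min during 37 °C, 175 rpm culture. Two-fold protein series 50-12.5 μg/mL final, triplicate wells, against 5×10^5 CFU/mL of LB-washed mid-log cells.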

A further assay concerns Enterobacter cloacae. The assay is described as follows: MIC against Gram-negative bacteria: Enterobacter cloacae. As to conditions: for MIC against E. cloacae: 96-well plate, 37° C., 10 h. In short, it runs like this:
(§1)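 Two-fold serial dilutions of each purified human EGF domain protein, three replicate wells per level, were combined with bacteria at a final 5×10^5 CFU/mL in LB. Cultures were shaken at 175 rpm, 37° C. The MIC was taken as the minimum concentration preventing growth.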

A further assay deals with Citrobacter diversus. The assay is described as follows: MIC against Gram-negative bacteria: Citrobacter diversus. Particulars: for MIC against C. diversus: 96-well plate, 37° C., 10 h. The procedure, abridged: as §1
The subject of a further assay is Pseudomonas aeruginosa. Nature of the assay: MIC against Gram-negative bacteria: Pseudomonas aeruginosa. Particulars: for MIC against P. aeruginosa: 96-well plate, 37° C., 10 h. The procedure, abridged: as §1
Another assay concerns Serratia marcescens. The assay is described as follows: MIC against Gram-negative bacteria: Serratia marcescens. Particulars: for MIC against S. marcescens: 96-well plate, 37° C., 10 h. The procedure, abridged: as §1
For the next assay, the system named is Klebsiella pneumonia. Nature of the assay: MIC against Gram-negative bacteria: Klebsiella pneumonia. As to conditions: for MIC against K. pneumonia: 96-well plate, 37° C., 10 h. The procedure, abridged: as §1
The next assay concerns Proteus vulgaris. Nature of the assay: MIC against Gram-negative bacteria: Proteus vulgaris. Particulars: for MIC against P. vulgaris: 96-well plate, 37° C., 10 h. In short, it runs like this: as §1
The subject of a further assay is E. coli BL21. The assay is described as follows: MIC against Gram-negative bacteria: E. coli BL21. Particulars: for MIC against E. coli BL21: 96-well plate, 37° C., 10 h. The procedure, abridged:
as §1

The next assay relates to Moraxella catarrhalis. The assay is described as follows: MIC against Gram-negative bacteria: Moraxella catarrhalis. As to conditions: for MIC against M. catarrhalis: 96-well plate, 37° C., 10 h. The procedure, abridged:
as §1

The next assay deals with Aeromonas hydrophila. The assay is described as follows: MIC against Gram-negative bacteria: Aeromonas hydrophila. Particulars: for MIC against A. hydrophila: 96-well plate, 37° C., 10 h. In short, it runs like this: as §1
The subject of the next assay is Proteus mirabilis. The assay is described as follows: MIC against Gram-negative bacteria: Proteus mirabilis. Particulars: for MIC against P. mirabilis: 96-well plate, 37° C., 10 h. The procedure, abridged: as §1
The mark [1] stands for this setting: 10 h cultivation at 37° C., 5×10^5 CFU/mL, two-fold serial dilution.

On to “PRT1019 (NLDDCIAATCAPGSTCIDRVGSFSCLCPPGRTGLLCH; listed as Homo sapiens)”, for which the MIC (usually the smallest concentration in the dilution series that meets the test's criterion for growth inhibition) with E. coli DH5α was found to be 12.5 µg/mL; against Enterobacter cloacae (E. cloacae, 10 h cultivation at 37° C.), 50 µg/mL; in the assay on Citrobacter diversus (C. diversus, 10 h cultivation at 37° C.), 50 µg/mL; in the assay with Pseudomonas aeruginosa (P. aeruginosa, 10 h cultivation at 37° C.) it was 12.5 µg/mL; against Serratia marcescens (S. marcescens, 10 h cultivation at 37° C.), 25 µg/mL; against Klebsiella pneumonia (K. pneumonia, 10 h cultivation at 37° C.), 25 µg/mL. The MIC turned out to be 12.5 µg/mL against Proteus vulgaris (P. vulgaris, 10 h cultivation at 37° C.); 50 µg/mL with E. coli BL21 (E. coli BL21, 10 h cultivation at 37° C.); 12.5 µg/mL with Moraxella catarrhalis (M. catarrhalis, 10 h cultivation at 37° C.); 12.5 µg/mL against Aeromonas hydrophila (A. hydrophila, 10 h cultivation at 37° C.); 50 µg/mL in the assay on Proteus mirabilis (P. mirabilis, 10 h cultivation at 37° C.).

Regarding “PRT1133 (KAGPCEQAGSPCRNGGQCQDDQGFALNFTCRCLVGFVGARCE; listed as Homo sapiens)”, the MIC in the assay on E. coli DH5α stood at 12.5 µg/mL. Besides, the “MIC E. cloacae” value with Enterobacter cloacae (setting [1]) came out at 25 µg/mL. Further, the “MIC C. diversus” value with Citrobacter diversus (setting [1]) is 12.5 µg/mL. In addition, in the assay with Pseudomonas aeruginosa (setting [1]), the “MIC P. aeruginosa” value turned out to be 12.5 µg/mL. In the assay on Serratia marcescens (setting [1]), the “MIC S. marcescens” value is 12.5 µg/mL. The “MIC K. pneumonia” value against Klebsiella pneumonia (setting [1]) is 12.5 µg/mL. Moreover, the “MIC P. vulgaris” value in the assay with Proteus vulgaris (setting [1]) was 25 µg/mL. Moreover, the “MIC E. coli BL21” value in the assay with E. coli BL21 (setting [1]) stood at 12.5 µg/mL. Also, the “MIC M. catarrhalis” value in the assay with Moraxella catarrhalis (setting [1]) is 25 µg/mL. Besides, the “MIC A. hydrophila” value against Aeromonas hydrophila (setting [1]) was 25 µg/mL. Moreover, the “MIC P. mirabilis” value in the assay on Proteus mirabilis (setting [1]) amounted to 12.5 µg/mL.

In the assay on E. coli DH5α, “PRT1248 (SACYCSATSRCDPQTGACLCHAGWWGRSCN; listed as Homo sapiens)” came in with an MIC of 25 µg/mL. For the same substance, the “MIC against E. cloacae” value with Enterobacter cloacae (Enterobacter cloacae, 5×10^5 CFU/mL) was 12.5 µg/mL. Besides, the “MIC against C. diversus” value in the assay on Citrobacter diversus (Citrobacter diversus, 5×10^5 CFU/mL) worked out at 25 µg/mL. The “MIC against P. aeruginosa” value against Pseudomonas aeruginosa (Pseudomonas aeruginosa, 5×10^5 CFU/mL) was 25 µg/mL. In addition, the “MIC against S. marcescens” value against Serratia marcescens (Serratia marcescens, 5×10^5 CFU/mL) is 25 µg/mL. In addition, the “MIC against K. pneumonia” value against Klebsiella pneumonia (Klebsiella pneumonia, 5×10^5 CFU/mL) turned out to be 25 µg/mL. Also, the “MIC against P. vulgaris” value against Proteus vulgaris (Proteus vulgaris, 5×10^5 CFU/mL) is 12.5 µg/mL. For the same substance, the “MIC against E. coli BL21” value against E. coli BL21 (E. coli BL21, 5×10^5 CFU/mL) was determined as 25 µg/mL. In the assay with Moraxella catarrhalis (Moraxella catarrhalis, 5×10^5 CFU/mL), the “MIC against M. catarrhalis” value was 12.5 µg/mL. The “MIC against A. hydrophila” value in the assay with Aeromonas hydrophila (Aeromonas hydrophila, 5×10^5 CFU/mL) came out at 12.5 µg/mL. Further, the “MIC against P. mirabilis” value in the assay with Proteus mirabilis (Proteus mirabilis, 5×10^5 CFU/mL) is 25 µg/mL.

In the assay on E. coli DH5α, “PRT159 (EYDACQRKPCQNNASCIDANEKQDGSNFTCVCLPGYTGELCQ; listed as Homo sapiens)” yielded an MIC of 25 µg/mL. In addition, the “MIC (μg/mL) E. cloacae” value against Enterobacter cloacae (E. cloacae, 10 h cultivation at 37° C., 5×10^5 CFU/mL) was determined as 12.5 µg/mL. For the same substance, the “MIC (μg/mL) C. diversus” value in the assay with Citrobacter diversus (C. diversus, 10 h cultivation at 37° C., 5×10^5 CFU/mL) is 12.5 µg/mL. Besides, the “MIC (μg/mL) P. aeruginosa” value against Pseudomonas aeruginosa (P. aeruginosa, 10 h cultivation at 37° C., 5×10^5 CFU/mL) was 25 µg/mL. The “MIC (μg/mL) S. marcescens” value in the assay on Serratia marcescens (S. marcescens, 10 h cultivation at 37° C., 5×10^5 CFU/mL) amounted to 25 µg/mL. Also, the “MIC (μg/mL) K. pneumonia” value with Klebsiella pneumonia (K. pneumonia, 10 h cultivation at 37° C., 5×10^5 CFU/mL) was determined as 12.5 µg/mL. For the same substance, the “MIC (μg/mL) P. vulgaris” value in the assay on Proteus vulgaris (P. vulgaris, 10 h cultivation at 37° C., 5×10^5 CFU/mL) stood at 12.5 µg/mL. Also, the “MIC (μg/mL) E. coli BL21” value against E. coli BL21 (E. coli BL21, 10 h cultivation at 37° C., 5×10^5 CFU/mL) was 50 µg/mL. Besides, the “MIC (μg/mL) M. catarrhalis” value against Moraxella catarrhalis (M. catarrhalis, 10 h cultivation at 37° C., 5×10^5 CFU/mL) is 12.5 µg/mL. Moreover, the “MIC (μg/mL) A. hydrophila” value against Aeromonas hydrophila (A. hydrophila, 10 h cultivation at 37° C., 5×10^5 CFU/mL) amounted to 12.5 µg/mL. For the same substance, in the assay with Proteus mirabilis (P. mirabilis, 10 h cultivation at 37° C., 5×10^5 CFU/mL), the “MIC (μg/mL) P. mirabilis” value was 25 µg/mL.

Turning to “PRT465 (ALDPCASGPCLNGGSCSNTQDPQSYHCSCPRAFTGKDCG; listed as Homo sapiens)”, the MIC against E. coli DH5α was 50 µg/mL. Further, the “MIC against E. cloacae” value in the assay on Enterobacter cloacae (5×10^5 CFU/mL) was found to be 50 µg/mL. Also, the “MIC against C. diversus” value with Citrobacter diversus (5×10^5 CFU/mL) is 50 µg/mL. In addition, in the assay on Pseudomonas aeruginosa (5×10^5 CFU/mL), the “MIC against P. aeruginosa” value came out at 50 µg/mL. The “MIC against S. marcescens” value against Serratia marcescens (5×10^5 CFU/mL) was 50 µg/mL. For the same substance, the “MIC against K. pneumonia” value against Klebsiella pneumonia (5×10^5 CFU/mL) turned out to be 12.5 µg/mL. Further, in the assay with Proteus vulgaris (5×10^5 CFU/mL), the “MIC against P. vulgaris” value worked out at 12.5 µg/mL. Moreover, the “MIC against E. coli BL21” value against E. coli BL21 (5×10^5 CFU/mL) turned out to be 12.5 µg/mL. Further, the “MIC against M. catarrhalis” value in the assay with Moraxella catarrhalis (5×10^5 CFU/mL) was 12.5 µg/mL. Moreover, the “MIC against A. hydrophila” value with Aeromonas hydrophila (5×10^5 CFU/mL) is 12.5 µg/mL. Further, in the assay on Proteus mirabilis (5×10^5 CFU/mL), the “MIC against P. mirabilis” value came to 50 µg/mL.
